Reference: US9586951B2 (FUJIFILM Corporation, priority 2013, dated 2017)
pIC50: −log10 of the molar value.

Biological target: T1, ATM (Homo sapiens, UniProt Q13315)
T1 construct: detecting phosphorylation of Chk2 in a human non-small cell lung cancer cell line NCI-H460 (ATCC company); host or cells: NCI-H460 human non-small cell lung cancer cells
Assay: ATM inhibition test (phosphorylation of Chk2 generated by ionizing radiation, AlphaScreen SureFire)
Format: cell-based
Settings: phosphorylated Chk2 in NCI-H460 cells, ionizing radiation 8Gy, 1 hour after test compound treatment; read-out: ATM inhibitory activity
Procedure, shortened: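 NCI-H460 cells, compound 1 h pre-treatment, 8Gy IR, further 1 h at 37° C in 5% CO2. Read-out: phospho-Chk2 via AlphaScreen SureFire. % inhibition relative to IR-induced signal window (irradiated vs non-irradiated drug-free wells).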

T1 sequence (Q13315 whole entry): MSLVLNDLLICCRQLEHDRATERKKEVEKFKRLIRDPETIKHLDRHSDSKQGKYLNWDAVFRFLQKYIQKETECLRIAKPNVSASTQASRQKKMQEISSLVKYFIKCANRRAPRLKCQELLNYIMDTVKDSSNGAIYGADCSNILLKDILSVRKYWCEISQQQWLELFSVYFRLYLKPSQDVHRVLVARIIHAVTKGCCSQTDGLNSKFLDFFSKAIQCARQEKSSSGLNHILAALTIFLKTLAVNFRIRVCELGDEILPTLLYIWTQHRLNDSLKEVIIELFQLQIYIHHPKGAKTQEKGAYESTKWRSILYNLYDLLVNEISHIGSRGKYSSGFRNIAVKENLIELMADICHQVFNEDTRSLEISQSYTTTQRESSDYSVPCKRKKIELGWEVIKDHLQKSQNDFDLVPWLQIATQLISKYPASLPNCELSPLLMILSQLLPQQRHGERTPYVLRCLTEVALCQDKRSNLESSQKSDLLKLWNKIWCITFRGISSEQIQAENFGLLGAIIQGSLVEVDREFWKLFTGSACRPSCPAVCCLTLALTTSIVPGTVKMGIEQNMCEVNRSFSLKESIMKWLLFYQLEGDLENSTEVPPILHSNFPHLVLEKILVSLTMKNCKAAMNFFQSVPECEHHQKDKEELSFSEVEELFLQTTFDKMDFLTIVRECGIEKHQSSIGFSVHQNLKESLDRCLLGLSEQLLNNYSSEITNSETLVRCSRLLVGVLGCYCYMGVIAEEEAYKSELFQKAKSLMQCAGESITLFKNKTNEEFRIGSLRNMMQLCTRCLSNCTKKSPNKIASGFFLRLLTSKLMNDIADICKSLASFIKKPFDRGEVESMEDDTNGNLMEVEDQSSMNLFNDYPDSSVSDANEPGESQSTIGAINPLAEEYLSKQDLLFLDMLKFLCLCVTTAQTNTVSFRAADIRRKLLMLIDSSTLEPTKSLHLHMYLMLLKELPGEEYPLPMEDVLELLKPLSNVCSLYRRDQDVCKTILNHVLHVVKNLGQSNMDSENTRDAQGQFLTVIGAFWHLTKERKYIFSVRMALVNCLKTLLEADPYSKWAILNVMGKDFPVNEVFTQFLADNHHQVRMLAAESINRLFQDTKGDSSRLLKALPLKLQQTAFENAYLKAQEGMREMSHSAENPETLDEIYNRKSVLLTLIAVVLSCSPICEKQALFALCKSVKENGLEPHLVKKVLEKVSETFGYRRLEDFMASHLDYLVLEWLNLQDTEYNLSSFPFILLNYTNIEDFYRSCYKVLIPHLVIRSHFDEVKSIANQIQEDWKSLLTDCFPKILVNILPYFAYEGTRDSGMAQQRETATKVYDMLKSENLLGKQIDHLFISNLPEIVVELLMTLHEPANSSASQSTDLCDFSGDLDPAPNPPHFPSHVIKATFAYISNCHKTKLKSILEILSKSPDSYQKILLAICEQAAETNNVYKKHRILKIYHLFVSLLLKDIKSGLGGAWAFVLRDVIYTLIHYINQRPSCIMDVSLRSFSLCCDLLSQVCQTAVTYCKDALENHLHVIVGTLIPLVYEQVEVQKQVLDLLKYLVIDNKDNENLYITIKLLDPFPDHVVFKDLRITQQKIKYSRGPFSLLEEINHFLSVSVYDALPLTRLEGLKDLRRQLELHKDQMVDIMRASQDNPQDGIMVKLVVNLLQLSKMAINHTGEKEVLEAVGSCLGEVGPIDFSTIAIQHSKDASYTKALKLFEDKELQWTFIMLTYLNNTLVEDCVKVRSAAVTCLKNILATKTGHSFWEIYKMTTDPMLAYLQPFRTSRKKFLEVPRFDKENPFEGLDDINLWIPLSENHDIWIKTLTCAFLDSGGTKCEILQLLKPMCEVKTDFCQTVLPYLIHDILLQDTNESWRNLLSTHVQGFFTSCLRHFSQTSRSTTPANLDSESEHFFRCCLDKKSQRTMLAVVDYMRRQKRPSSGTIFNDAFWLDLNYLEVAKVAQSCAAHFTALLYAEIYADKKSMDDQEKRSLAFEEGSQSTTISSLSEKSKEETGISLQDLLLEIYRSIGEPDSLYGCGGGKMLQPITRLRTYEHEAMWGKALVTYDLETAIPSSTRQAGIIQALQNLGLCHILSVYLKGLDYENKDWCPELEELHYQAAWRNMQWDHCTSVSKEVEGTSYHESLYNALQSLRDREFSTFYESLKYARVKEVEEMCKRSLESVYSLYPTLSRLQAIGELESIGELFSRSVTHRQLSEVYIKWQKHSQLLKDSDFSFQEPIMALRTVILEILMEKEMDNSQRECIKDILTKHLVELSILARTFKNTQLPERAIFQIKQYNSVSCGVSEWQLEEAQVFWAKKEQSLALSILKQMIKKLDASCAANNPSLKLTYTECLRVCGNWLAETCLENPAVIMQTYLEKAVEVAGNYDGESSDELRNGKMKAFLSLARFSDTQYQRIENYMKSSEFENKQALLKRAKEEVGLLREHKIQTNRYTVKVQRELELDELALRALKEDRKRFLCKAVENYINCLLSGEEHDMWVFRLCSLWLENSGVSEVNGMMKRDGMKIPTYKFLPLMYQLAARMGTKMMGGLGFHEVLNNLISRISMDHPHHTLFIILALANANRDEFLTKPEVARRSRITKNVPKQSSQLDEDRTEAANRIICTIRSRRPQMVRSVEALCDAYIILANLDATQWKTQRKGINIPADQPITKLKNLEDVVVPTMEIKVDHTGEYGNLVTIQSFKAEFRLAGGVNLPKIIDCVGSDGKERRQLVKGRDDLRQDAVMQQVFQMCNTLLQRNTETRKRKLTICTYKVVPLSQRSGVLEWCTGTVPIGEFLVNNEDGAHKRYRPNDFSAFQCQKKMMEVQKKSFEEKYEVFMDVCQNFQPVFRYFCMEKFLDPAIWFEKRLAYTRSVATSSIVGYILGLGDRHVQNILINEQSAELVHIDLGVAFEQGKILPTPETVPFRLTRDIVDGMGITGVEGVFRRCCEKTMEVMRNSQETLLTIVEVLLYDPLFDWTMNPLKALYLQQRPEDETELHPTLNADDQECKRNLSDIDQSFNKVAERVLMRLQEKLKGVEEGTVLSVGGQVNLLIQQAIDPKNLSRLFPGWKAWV

O=c1cc(N2CCOCC2)cc(-c2cccc3c2Oc2ccc(NCc4ccc(CO)o4)cc2C3)[nH]1 [Example 2-13-3, 6-(7-(((5-(Hydroxymethyl)furan-2-yl)methyl)amino)-9H-xanthen-4-yl)-4-morpholino pyridin-2(1H)-one] showed a pIC50 of 5.70 to 6.30.

Compound CC(C)(C)OC(=O)N1CCC(Nc2ccc3c(c2)Cc2cccc(-c4cc(N5CCOCC5)cc(=O)[nH]4)c2O3)C(F)C1 (stereo not shown) [Example 2-14-1, tert-Butyl 3-fluoro-4-((5-(4-morpholino-6-oxo-1,6-dihydropyridin-2-yl)-9H-xanthen-2-yl)amino) piperidine-1-carboxylate] has a pIC50 of 6.30 to 7.00.

Cc1cccc(C(C)Nc2ccc3c(c2)Cc2cccc(-c4cc(N5CCOCC5)cc(=O)[nH]4)c2O3)n1 (single isomer, unassigned) [Example 2-14-85-1, 6-(7-((1-(6-methylpyridin-2-yl)ethyl)amino)-9H-xanthen-4-yl)-4-morpholinopyridin-2(1H)-one] gave a pIC50 of 6.30 to 7.00.

With CC(Nc1ccc2c(c1)Sc1cccc(-c3cc(N4CCOCC4)cc(=O)[nH]3)c1S2)C1CC1 (stereo not shown) [Example 1-12-43, 6-(7-((1-Cyclopropylethyl)araino)thianthren-1-yl)-4-morpholino pyridin-2(1H)-onc] the pIC50 was 5.70 to 6.30.

In the case of Cc1ccc(C(C[C@@H]2CCCN2)Nc2ccc3c(c2)Sc2cccc(-c4cc(N5CCOCC5)cc(=O)[nH]4)c2S3)nc1 (single isomer, unassigned) [Example 12-1], the pIC50 was 6.30 to 7.00.

In the case of Cc1ccnc(C(CO)Nc2ccc3c(c2)Cc2cccc(-c4cc(N5CCOCC5)cc(=O)[nH]4)c2O3)c1 (single isomer, unassigned) [Example 2-14-91, 6-(7-((2-hydroxy-1-(4-methylpyridin-2-yl)ethyl)amino)-9H-xanthen-4-yl)-4-morpholinopyridin-2(1H)-one], the pIC50 was 6.30 to 7.00.

For CC(Nc1ccc2c(c1)Sc1cccc(-c3cc(N4CCOCC4)cc(=O)[nH]3)c1S2)c1ccnc(Cl)n1 (stereo not shown) [Example 1-12-81, 6-(7-((1-(2-Chloropyrimidin-4-yl)ethyl)amino)thianthren-1-yl)-4-morpholino pyridin-2 (1H)-one], the pIC50 was 6.30 to 7.00.

With CC(CN1CCN(C)CC1)Nc1ccc2c(c1)Sc1cccc(-c3cc(=O)cc(N4CCOCC4)o3)c1S2 (stereo not shown) [Example 11-4, 2-(7-((1-(4-Methylpiperazin-1-yl)propan-2-yl)amino)thianthren-1-yl)-6-morpholino-4H-pyran-4-one] the pIC50 was 6.30 to 7.00.

CC[C@H](N)C(CC(C)C)Nc1ccc2c(c1)Sc1cccc(-c3cc(N4CCOCC4)cc(=O)[nH]3)c1S2 (stereo partly shown) [Example 1-20-7] gave a pIC50 of 5.70 to 6.30.

CC(C)(C)OC(=O)N1CCC[C@H]1C(=O)Nc1ccc2c(c1)Cc1cccc(-c3cc(N4CCOCC4)cc(=O)[nH]3)c1O2 [Example 2-20-2, (S)-tert-butyl 2-((5-(4-morpholino-6-oxo-1,6-dihydropyridin-2-yl)-9H-xanthen-2-yl)carbamoyl)pyrrolidine-1-carboxylate] was tested, and the pIC50 was 5.70 to 6.30.

Compound CCNCC(Nc1ccc2c(c1)Sc1cccc(-c3cc(N4CCOCC4)cc(=O)[nH]3)c1S2)c1cccc(C)n1 (stereo not shown) [Example 1-34-1, 6-(7-((2-(ethylamino)-1-(6-methylpyridin-2-yl)ethyl)amino)thianthren-1-yl)-4-morpholinopyridin-2(1H)-one] has a pIC50 of 6.30 to 7.00.

With N#Cc1ccc(CNc2ccc3c(c2)Cc2cccc(-c4cc(N5CCOCC5)cc(=O)[nH]4)c2O3)s1 [Example 2-14-32, 6-(7-(((5-Isocycanothiophen-2-yl)methyl)amino)-9H-xanthen-4-yl)-4-morpholino pyridin-2(1H)-one] the pIC50 was over 7.00.

Work on O=c1cc(N2CCOCC2)cc(-c2cccc3c2Oc2ccc(NCc4ncccn4)cc2C3)[nH]1 [Example 2-3-4, 4-Morpholino-6-(7-((pyrimidin-2-ylmethyl)amino)-9H-xanthen-4-yl) pyridin-2(1H)-one] yielded a pIC50 of 5.70 to 6.30.

CCCC(Nc1ccc2c(c1)Sc1cccc(-c3cc(N4CCOCC4)cc(=O)[nH]3)c1S2)c1ccc(C)cn1 (stereo not shown) [Example 1-12-119, 6-(7-((1-(5-Methylpyridin-2-yl)butyl)amino)thianthren-1-yl)-4-morpholino pyridin-2 (1H)-one] gave a pIC50 of 6.30 to 7.00.

Work on Cc1cccc(CN(CC(=O)O)c2ccc3c(c2)Cc2cccc(-c4cc(N5CCOCC5)cc(=O)[nH]4)c2O3)n1 [Example 2-17, 2-(((6-methylpyridin-2-yl)methyl)(5-(4-morpholino-6-oxo-1,6-dihydropyridin-2-yl)-9H-xanthen-2-yl)amino)acetic acid] yielded a pIC50 of 5.70 to 6.30.

For O=c1cc(N2CCOCC2)cc(-c2nccc3c2Oc2ccc(NCc4cncc(Cl)c4)cc2C3)[nH]1 [Example 2-41-9, 6-(7-(((5-Chloropyridin-3-yl)methyl)amino)-5H-chromeno [2,3-c]pyridin-1-yl)-4-morpholino pyridin-2(1H)-one], the pIC50 was 6.30 to 7.00.

Cc1cccc(CCN2CCC(Nc3ccc4c(c3)Cc3cccc(-c5cc(N6CCOCC6)cc(=O)[nH]5)c3O4)CC2)c1 [Example 2-30-8, 6-(7-((1-(3-Methylphenethyl)piperidin-4-yl)amino)-9H-xanthen-4-yl)-4-morpholino pyridin-2 (1H)-one] showed a pIC50 of 5.70 to 6.30.

Compound O=c1cc(N2CCOCC2)cc(-c2cccc3c2Sc2ccc(NC4CCCN(C5CCOC5)C4)cc2S3)[nH]1 (stereo not shown) [Example 1-24-8, 4-Morpholino-6-(7-((1-(tetrahydrofuran-3-yl)piperidin-3-yl)amino)thianthren-1-yl)pyridin-2 (1H)-one] has a pIC50 of 6.30 to 7.00.

Compound O=c1cc(N2CCOCC2)cc(-c2cccc3c2Sc2ccc(NCc4cccnn4)cc2C3)[nH]1 [Example 3-8-12] has a pIC50 of 5.70 to 6.30.

For O=c1cc(N2CCOCC2)cc(-c2cccc3c2Sc2ccc(NCC4CCN(Cc5cccnc5)CC4)cc2S3)[nH]1 [Example 1-11, 4-morpholino-6-(7-(((1-(pyridin-3-ylmethyl)piperidin-4-yl)methyl)amino)thianthren-1-yl)pyridin-2(1H)-one], the pIC50 was 6.30 to 7.00.

In the case of Cc1cc(CNc2ccc3c(c2)Sc2cccc(-c4cc(N5CCOCC5)cc(=O)[nH]4)c2S3)ccn1 [Example 1-44-3, 6-(7-(((2-Methylpyridin-4-yl)methyl)amino)thianthren-1-yl)-4-morpholino pyridin-2(1H)-one], the pIC50 was 6.30 to 7.00.

Cc1ccc(C(Nc2ccc3c(c2)Sc2cccc(-c4cc(N5CCOCC5)cc(=O)[nH]4)c2S3)C2CCC2)nc1 (stereo not shown) [Example 1-12-124, 6-(7-((Cyclobutyl(5-methylpyridin-2-yl)methyl)amino)thianthren-1-yl)-4-morpholino pyridin-2(1H)-one] showed a pIC50 of 6.30 to 7.00.

For O=c1cc(N2CCOCC2)cc(-c2cccc3c2Sc2ccc(NC4CCNCC4)cc2S3)[nH]1 [Example 1-24-15, 4-Morpholino-6-(7-(piperidin-4-ylamino)thianthren-1-yl)pyridin-2(1H)-one], the pIC50 was over 7.00.

Cc1cnc(C(CCN(C)CCO)Nc2ccc3c(c2)Sc2cccc(-c4cc(N5CCOCC5)cc(=O)[nH]4)c2S3)cn1 (single isomer, unassigned) [Example 10-4-2, 6-(7-((3-((2-Hydroxyethyl)(methyl)amino)-1-(5-methylpyrazin-2-yl)propyl)amino)thianthren-1-yl)-4-morpholinopyridin-2(1H)-one] gave a pIC50 of 6.30 to 7.00.

For CC(C)(C)OC(=O)N1CCCC(Nc2ccc3c(c2)Cc2cccc(-c4cc(N5CCOCC5)cc(=O)[nH]4)c2O3)CC1 (stereo not shown) [Example 2-3-11, tert-Butyl 4-((5-(4-morpholino-6-oxo-1,6-dihydropyridin-2-yl)-9H-xanthen-2-yl)amino) azepane-1-carboxylate], the pIC50 was 6.30 to 7.00.

O=c1cc(N2CCOCC2)cc(-c2cccc3c2Oc2ccc(NCc4cnc5c(c4)OCCO5)cc2C3)[nH]1 [Example 2-2-29, 6-(7-(((2,3-Dihydro-[1,4]dioxino[2,3-b]pyridin-7-yl)methyl)amino)-9H-xanthen-4-yl)-4-morpholino pyridin-2 (1H)-one] gave a pIC50 of over 7.00.

Cc1ccc(C(C[C@@H]2CCCN2C)Nc2ccc3c(c2)Sc2cccc(-c4cc(N5CCOCC5)cc(=O)[nH]4)c2S3)nc1 (single isomer, unassigned) [Example 12-2] gave a pIC50 of 6.30 to 7.00.

Work on O=c1cc(N2CCOCC2)cc(-c2cccc3c2Oc2ccc(NCc4cnccn4)cc2C3)[nH]1 [Example 2-3-5, 4-Morpholino-6-(7-((pyrazin-2-ylmethyl)amino)-9H-xanthen-4-yl)pyridin-2(1H)-one] yielded a pIC50 of 6.30 to 7.00.

In the case of CC(Nc1ccc2c(c1)Sc1cccc(-c3cc(N4CCOCC4)cc(=O)[nH]3)c1S2)c1ncc(CN2CCCC2)cn1 (stereo not shown) [Example 1-12-94, 4-Morpholino-6-(7-((1-(5-(pyrrolidin-1-ylmethyl)pyrimidin-2-yl)ethyl)amino)thianthren-1-yl)pyridin-2 (1H)-one], the pIC50 was 6.30 to 7.00.

For O=c1cc(N2CCOCC2)cc(-c2cccc3c2Sc2ccc(NC4CCC(N5CCOCC5)CC4)cc2S3)[nH]1 (stereo not shown) [Example 1-36-1, 4-Morpholino-6-(7-((4-morpholinocyclohexyl)amino)thianthren-1-yl)pyridin-2(1H)-one], the pIC50 was 6.30 to 7.00.

“Ethyl 6-(((6-(4-morpholino- 6-oxo-1,6-dihydropyridin-2- yl)thianthren-2-yl)amino) methyl)picol [Example 1-12-56]” showed a pIC50 of 6.30 to 7.00.

O=c1cc(N2CCOCC2)cc(-c2cccc3c2Sc2ccc(NC(CF)CN4CCOCC4)cc2S3)[nH]1 (single isomer, unassigned) [Example 1-41-1-3, 6-(7-((1-fluoro-3-morpholinopropan-2-yl)amino)thianthren-1-yl)-4-morpholinopyridin-2(1H)-one] was tested, and the pIC50 was 6.30 to 7.00.

O=c1cc(N2CCOCC2)cc(-c2cccc3c2Sc2ccc(NCCCCN4CCOCC4)cc2S3)[nH]1 [Example 1-9-4, 4-Morpholino-6-(7-((4-morpholinobutyl)amino)thianthren-1-yl)pyridin-2(1H)-one] gave a pIC50 of 6.30 to 7.00.

“3-((6-(4-Morpholino-6-oxo- 1,6-dihydropyridin-2-yl) thianthren-2-yl)amino) indolin-2-one [Example 1-12-37]” showed a pIC50 of 6.30 to 7.00.
